For assay [1], the target named is DGKζ (Homo sapiens (Human), UniProt Q13574). Nature of the assay: Biochemical DGK IC50 assay, DGKζ ADP-Glo assay. The conditions noted are these: 0.5 nM enzyme, 140 μM ATP, 80 μM DAG; read-out: DGKζ ADP-Glo assay IC50. In short, it runs like this: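 ADP formation measured by ADP-Glo luminescence, with test compounds at final 1.55–10000 nM or 23.3–150000 nM. Enzyme: purified full-length human DGKζ from Sf9 insect cells; substrate: DAG/PS micelles in 25 mM HEPES pH 7.0, 0.5 mM EDTA, octyl glucoside.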
Background: ADP-Glo turns the ADP formed in a reaction into a luminescent signal.

The target of assay [2] is DGKα (Homo sapiens (Human), UniProt P23743). Kind of assay: Biochemical DGK IC50 assay, DGKα ADP-Glo assay. The conditions noted are these: 7.5 nM enzyme, 140 μM ATP, 80 μM DAG. In short, it runs like this: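 Compounds at final 1.55˜10000 nM or 23.3˜150000 nM were tested against full-length DGKα. Substrate was lipid micelles of DAG and PS resuspended in 25 mM HEPES pH 7.0 with 0.5 mM EDTA and 160 mM octyl β-D-glucopyranoside. ADP formed was detected by ADP-Glo.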

In general, IC50 refers to the concentration at which inhibition is half-maximal.

Each structure is given as a SMILES string.

Chain of DGKζ (Q13574 other isoform, or with tags, fused parts or gaps): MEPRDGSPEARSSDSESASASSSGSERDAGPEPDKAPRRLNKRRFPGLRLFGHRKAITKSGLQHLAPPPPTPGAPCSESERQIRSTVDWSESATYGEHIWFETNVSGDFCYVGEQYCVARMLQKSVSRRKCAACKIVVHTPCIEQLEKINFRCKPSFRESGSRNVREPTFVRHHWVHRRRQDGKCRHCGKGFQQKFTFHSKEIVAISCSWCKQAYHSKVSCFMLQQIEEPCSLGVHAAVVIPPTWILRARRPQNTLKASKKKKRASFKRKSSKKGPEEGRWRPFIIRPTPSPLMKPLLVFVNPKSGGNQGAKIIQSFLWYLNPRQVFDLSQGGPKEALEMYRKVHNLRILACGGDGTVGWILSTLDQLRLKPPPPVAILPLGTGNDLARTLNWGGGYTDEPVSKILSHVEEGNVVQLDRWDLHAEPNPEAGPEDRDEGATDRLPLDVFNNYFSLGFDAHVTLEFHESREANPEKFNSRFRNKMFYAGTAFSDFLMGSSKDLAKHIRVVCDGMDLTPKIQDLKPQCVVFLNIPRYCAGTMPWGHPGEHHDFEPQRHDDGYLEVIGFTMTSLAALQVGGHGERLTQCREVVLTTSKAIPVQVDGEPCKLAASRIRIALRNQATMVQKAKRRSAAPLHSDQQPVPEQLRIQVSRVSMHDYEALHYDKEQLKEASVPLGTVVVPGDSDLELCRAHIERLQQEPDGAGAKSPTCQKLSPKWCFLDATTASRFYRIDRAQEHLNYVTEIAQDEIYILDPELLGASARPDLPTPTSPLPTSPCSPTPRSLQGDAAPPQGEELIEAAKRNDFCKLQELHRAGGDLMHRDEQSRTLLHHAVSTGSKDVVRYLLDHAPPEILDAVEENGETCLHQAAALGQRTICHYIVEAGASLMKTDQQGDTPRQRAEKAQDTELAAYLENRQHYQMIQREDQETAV
Chain of DGKα (P23743 whole entry): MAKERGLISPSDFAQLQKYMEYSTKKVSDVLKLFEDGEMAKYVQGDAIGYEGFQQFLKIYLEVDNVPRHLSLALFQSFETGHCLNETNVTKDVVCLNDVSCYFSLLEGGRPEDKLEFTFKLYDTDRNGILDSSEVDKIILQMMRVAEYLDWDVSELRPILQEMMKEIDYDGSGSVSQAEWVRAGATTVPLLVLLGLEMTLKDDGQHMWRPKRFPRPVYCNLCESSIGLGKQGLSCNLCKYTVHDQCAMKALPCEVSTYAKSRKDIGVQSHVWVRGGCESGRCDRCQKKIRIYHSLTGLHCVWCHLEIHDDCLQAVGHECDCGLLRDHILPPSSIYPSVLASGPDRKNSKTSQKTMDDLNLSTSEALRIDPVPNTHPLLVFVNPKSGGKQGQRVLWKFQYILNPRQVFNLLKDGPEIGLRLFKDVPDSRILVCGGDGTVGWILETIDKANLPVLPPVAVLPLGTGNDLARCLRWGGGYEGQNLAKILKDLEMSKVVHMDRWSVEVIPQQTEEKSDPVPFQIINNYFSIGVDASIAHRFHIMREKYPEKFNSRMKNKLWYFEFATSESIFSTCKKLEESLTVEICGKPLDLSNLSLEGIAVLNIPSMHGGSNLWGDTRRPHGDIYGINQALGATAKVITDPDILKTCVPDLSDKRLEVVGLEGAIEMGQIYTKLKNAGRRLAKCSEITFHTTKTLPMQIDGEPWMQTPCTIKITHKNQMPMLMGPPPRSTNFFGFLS

On to `CC(c1ccc2nccnc2c1)N1C[C@H](C)N(c2cc(=O)[nH]c3cn(CC#N)nc23)C[C@H]1C` (stereo partly drawn) [Compound A102, 2-(7-((2S,5R)-2,5-dimethyl-4-(1-(quinoxalin-6-yl)ethyl)piperazin-1-yl)-5-oxo-4,5-dihydro-2H-pyrazolo[4,3-b]pyridin-2-yl)acetonitrile], for which the IC50 in assay [1] is 288 nM; in assay [2], greater than 10000 nM.

Consider `C[C@@H]1CN(c2nc(=O)n(C)c3c(Cl)n(CC#N)nc23)[C@@H](C)CN1[C@H](C)c1ccc2nccnc2c1` [Compound A245, 2-(3-chloro-7-((2S,5R)-2,5-dimethyl-4-((R)-1-(quinoxalin-6-yl)ethyl)piperazin-1-yl)-4-methyl-5-oxo-4,5-dihydro-2H-pyrazolo[4,3-d]pyrimidin-2-yl)acetonitrile, or 2-(3-chloro-7-((2S,5R)-2,5-dimethyl-4-((S)-1-(quinoxalin-6-yl)ethyl)piperazin-1-yl)-4-methyl-5-oxo-4,5-dihydro-2H-pyrazolo[4,3-d]pyrimidin-2-yl)acetonitrile], for which the IC50 in assay [1] was 87 nM; in assay [2], greater than 10000 nM.

As for `CC[C@H]1CN(C(C)c2cn(C)nc2C(F)(F)F)[C@H](CC)CN1c1cc(=O)n(C)c2cn(CC#N)nc12` (stereo partly drawn) [Compound A232, 2-(7-((2S,5R)-2,5-diethyl-4-(1-(1-methyl-3-(trifluoromethyl)-1H-pyrazol-4-yl)ethyl)piperazin-1-yl)-4-methyl-5-oxo-4,5-dihydro-2H-pyrazolo[4,3-b]pyridin-2-yl)acetonitrile], the IC50 in assay [1] was determined as 3110 nM; in assay [2], 8490 nM.

Take `CC[C@H]1CN(C(C)c2ccc(OC)cc2)[C@H](CC)CN1c1cc(=O)n(C)c2cn(CC#N)nc12` (stereo partly drawn) [Compound A377]: the values for the IC50 in assay [1] and in assay [2] were 173 nM and 94 nM, respectively.

Take `CC[C@@H]1CN(c2cc(=O)n(C)c3cn(CC#N)nc23)[C@@H](C)CN1C(C)c1ccc2nccnc2c1` (single isomer, unassigned) [Compound A97a]: the figures for the IC50 in assay [1] and in assay [2] were 8.6 nM and 3380 nM, respectively.

For `CC[C@H]1CN(C(C)c2ccccc2OC)[C@H](CC)CN1c1cc(=O)n(C)c2cn(CC#N)nc12` (single isomer, unassigned) [Compound A106a], the IC50 in assay [1] was 2190 nM; in assay [2] it was greater than 10000 nM.

On to `C=C(C)n1cc2c(n1)c(N1C[C@@H](C)N(C(C)c3ccc4nccnc4c3)C[C@@H]1C)cc(=O)n2C` (stereo partly drawn) [Compound A24, 7-((2S,5R)-2,5-dimethyl-4-(1-(quinoxalin-6-yl)ethyl)piperazin-1-yl)-4-methyl-2-(prop-1-en-2-yl)-2,4-dihydro-5H-pyrazolo[4,3-b]pyridin-5-one], for which the IC50 in assay [1] is 4300 nM; in assay [2] it was 150 nM.

With `CC[C@H]1CN(C(C)c2cn(CC)c(C)n2)[C@H](CC)CN1c1cc(=O)n(C)c2cn(CC#N)nc12` (stereo partly drawn) [Compound A208], the IC50 in assay [1] and in assay [2] was greater than 10000 nM in each case.

With `CC(c1ccc2nccnc2c1)N1C[C@H](C)N(c2cc(=O)n(C)c3cn(CCN(C)C)nc23)C[C@H]1C` (stereo partly drawn) [Compound A11], the IC50 in assay [1] and in assay [2] was greater than 150000 nM throughout.

Regarding `CC[C@H]1CN(C(C)c2ccc(F)cc2COC)[C@H](CC)CN1c1cc(=O)n(C)c2cn(CC#N)nc12` (stereo partly drawn) [Compound A79, 2-(7-((2S,5R)-2,5-diethyl-4-(1-(4-fluoro-2-(methoxymethyl)phenyl)ethyl)piperazin-1-yl)-4-methyl-5-oxo-4,5-dihydro-2H-pyrazolo[4,3-b]pyridin-2-yl)acetonitrile], the IC50 in assay [1] was found to be 115 nM; in assay [2], 2480 nM.

As to `CC(c1ccc2nccnc2c1)N1C[C@H](C)N(c2cc(=O)n(C)c3cn(C)nc23)C[C@H]1C` (stereo partly drawn) [Compound A3], the IC50 amounted to 3800 nM in assay [1] and 3200 nM in assay [2].

Regarding `CC[C@H]1CN(C(C)c2cnc3ccccc3c2)[C@H](CC)CN1c1cc(=O)n(C)c2cn(CC#N)nc12` (stereo partly drawn) [Compound A56], the IC50 was 27 nM in assay [1] and 560 nM in assay [2].

(Values after patent US20240270751A1, “Pyrazolopyridinone Compounds” (BeiGene Ltd., priority 2021, published 2024).)
